Assay results taken from patent US7820650B2, “Antifungal 4-substituted 5,6-dihydro-4H-pyrrolo [1,2-a][1,4]benzodiazepines” (Janssen Pharmaceutica NV, priority 2000, dated 2010).

Experiments:
Assay in all cases: Determination of fungal susceptibility (MIC, microdilution in CYG medium)
Type in all cases: cell-based
Microsporum canis = details: single isolate, 5 days at 30° C., growth (OD 405 nm) inhibited to 35% of control or less
Procedure: (§1) A panel single isolates of the dermatophytes Sporothrix schenckii; Microsporum canis; Trichophyton rubrum; Trichophyton mentagrophyte; Candida parapsilosis; Cryptococcus neoformans; and Aspergillus fumigatus were used to evaluate the activity of the test compounds in vitro. Inocula were prepared as broth cultures (yeasts) or as suspensions of fungal material made from agar slope cultures (moulds). The test compounds were pipetted from dimethylsulfoxide stock solution into water to provide a series of 10-fold dilutions. The fungal inocula were suspended in the growth medium CYG (F.C. Odds, Journal of Clinical Microbiology, 29, 2735-2740, 1991) at approximately 50,000 colony-forming units (CFU) per ml and added to the aqueous test drugs. The cultures were set up in the 96 wells of plastic microdilution plates and they were incubated for 2 days at 37° C. (Candida spp.) or for 5 days at 30° C. (other fungi). Growth in the microcultures was measured by their optical density (OD) measured at a wavelength of 405 nm. The OD for cultures with test compounds was calculated as a percentage of the OD for control cultures, i.e. the OD for cultures without test compounds. Inhibition of growth to 35% of control or less was recorded as significant inhibition. Minimal inhibitory concentration (MIC; in 10^−6 M) of some of the compounds of formula (I) for the tested species are listed in Table.

Cryptococcus neoformans = details: single isolate, 5 days at 30° C., growth (OD 405 nm) inhibited to 35% of control or less
Procedure: as §1

Sporothrix schenckii = details: single isolate, 5 days at 30° C., growth (OD 405 nm) inhibited to 35% of control or less
Procedure: as §1

Candida parapsilosis = details: single isolate, 2 days at 37° C., growth (OD 405 nm) inhibited to 35% of control or less
Procedure: as §1

Trichophyton rubrum = details: single isolate, 5 days at 30° C., growth (OD 405 nm) inhibited to 35% of control or less
Procedure: as §1

Aspergillus fumigatus = details: single isolate, 5 days at 30° C., growth (OD 405 nm) inhibited to 35% of control or less
Procedure: as §1

[1] = system: Trichophyton mentagrophytes; details: single isolate, 5 days at 30° C., growth (OD 405 nm) inhibited to 35% of control or less
Procedure: as §1

| SMILES | MIC values, Microsporum canis (Microsporum canis) | MIC values, Cryptococcus neoformans (Cryptococcus neoformans) | MIC values, Sporothrix schenkii (Sporothrix schenckii) | MIC values, Candida parapsilosis (Candida parapsilosis) | MIC values, Trichophyton rubrum (Trichophyton rubrum) | MIC values, Aspergillus fumigatus (Aspergillus fumigatus) | MIC values, Trichophyton mentagrophytes [1] |
| --- | --- | --- | --- | --- | --- | --- | --- |
| CCc1ccc(C2=NCc3ccccc3-n3cccc32)cc1 [Comp. 21] | 0.32 10^−6 M | >10 10^−6 M | 10 10^−6 M | 3.2 10^−6 M | 0.03 10^−6 M | 1 10^−6 M | 0.32 10^−6 M |
| CCc1ccc(C2NCc3c(F)cccc3-n3cccc32)cc1 (stereo not drawn) [Comp. 15] | 3.2 10^−6 M | >10 10^−6 M | >10 10^−6 M | 10 10^−6 M | 0.32 10^−6 M | 10 10^−6 M | 1 10^−6 M |
| CC(C)c1ccc(C2NCc3c(F)cccc3-n3cccc32)cc1 (stereo not drawn) [Comp. 14] | 10 10^−6 M | >10 10^−6 M | >10 10^−6 M | >10 10^−6 M | 0.32 10^−6 M | >10 10^−6 M | 1 10^−6 M |
| Br.CCOc1ccc(C2NCc3ccc(Cl)cc3-n3cccc32)cc1 (stereo not drawn) [Comp. 17] | >10 10^−6 M | >10 10^−6 M | >10 10^−6 M | >10 10^−6 M | 10 10^−6 M | >10 10^−6 M | 10 10^−6 M |
| CCc1ccc(C2NCc3cc(Cl)ccc3-n3cccc32)cc1 (stereo not drawn) [Comp. 11] | >10 10^−6 M | >10 10^−6 M | >10 10^−6 M | >10 10^−6 M | 3.2 10^−6 M | >10 10^−6 M | 3.2 10^−6 M |
| Br.CC(C)c1ccc(C2NCc3ccccc3-n3cccc32)cc1 (stereo not drawn) [Comp. 4] | 10 10^−6 M | >10 10^−6 M | >10 10^−6 M | >10 10^−6 M | 3.2 10^−6 M | >10 10^−6 M | 3.2 10^−6 M |
| Br.Cc1ccc(C2NCc3c(Cl)cccc3-n3cccc32)cc1 (stereo not drawn) [Comp. 5] | 1 10^−6 M | >10 10^−6 M | >10 10^−6 M | >10 10^−6 M | 0.32 10^−6 M | >10 10^−6 M | 1 10^−6 M |
| Br.Cc1ccc(C2NCc3ccc(Cl)cc3-n3cccc32)cc1 (stereo not drawn) [Comp. 19] | 10 10^−6 M | >10 10^−6 M | >10 10^−6 M | >10 10^−6 M | 0.32 10^−6 M | >10 10^−6 M | 3.2 10^−6 M |
| Br.CCc1ccc(C2NCc3ccc(Cl)cc3-n3cccc32)cc1 (stereo not drawn) [Comp. 16] | 1 10^−6 M | >10 10^−6 M | >10 10^−6 M | >10 10^−6 M | 0.1 10^−6 M | >10 10^−6 M | 1 10^−6 M |
| Br.FC(F)(F)c1cccc(C2NCc3c(Cl)cccc3-n3cccc32)c1 (stereo not drawn) [Comp. 3] | 2.1 10^−6 M | >10 10^−6 M | >10 10^−6 M | >10 10^−6 M | 2.1 10^−6 M | 10 10^−6 M | 3.2 10^−6 M |
| Br.N#Cc1ccc(C2NCc3ccc(Cl)cc3-n3cccc32)cc1 (stereo not drawn) [Comp. 20] | >10 10^−6 M | >10 10^−6 M | >10 10^−6 M | >10 10^−6 M | 0.32 10^−6 M | >10 10^−6 M | >10 10^−6 M |
| Br.CCCCc1ccc(C2NCc3c(Cl)cccc3-n3cccc32)cc1 (stereo not drawn) [Comp. 8] | 1 10^−6 M | >10 10^−6 M | >10 10^−6 M | >10 10^−6 M | 0.1 10^−6 M | >10 10^−6 M | 1 10^−6 M |
| Br.CC(C)c1ccc(C2NCc3c(Cl)cccc3-n3cccc32)cc1 (stereo not drawn) [Comp. 6] | 0.32 10^−6 M | >10 10^−6 M | >10 10^−6 M | 10 10^−6 M | 0.32 10^−6 M | >10 10^−6 M | 1 10^−6 M |
| CCc1ccc(C2c3cccn3-c3cccc(Cl)c3CN2C)cc1 (stereo not drawn) [Comp. 10, 4-(4′-ethylphenyl)-5-methyl-7-chlorobenzo[1,2]-pyrrolo-[1,2a][1,4]diazepine] | >10 10^−6 M | >10 10^−6 M | >10 10^−6 M | >10 10^−6 M | 3.2 10^−6 M | >10 10^−6 M | 10 10^−6 M |
| Br.COc1ccc(C2NCc3c(Cl)cccc3-n3cccc32)cc1 (stereo not drawn) [Comp. 1] | 5.5 10^−6 M | >10 10^−6 M | >10 10^−6 M | >10 10^−6 M | 2.1 10^−6 M | 10 10^−6 M | 2.1 10^−6 M |
| Br.CCc1ccc(C2NCc3c(Cl)cccc3-n3cccc32)cc1 (stereo not drawn) [Comp. 2] | 0.32 10^−6 M | >10 10^−6 M | >10 10^−6 M | 1 10^−6 M | 0.03 10^−6 M | 3.2 10^−6 M | 0.32 10^−6 M |
| Br.CC(C)(C)c1ccc(C2NCc3c(Cl)cccc3-n3cccc32)cc1 (stereo not drawn) [Comp. 7] | 0.32 10^−6 M | >10 10^−6 M | 10 10^−6 M | 10 10^−6 M | 0.1 10^−6 M | >10 10^−6 M | 1 10^−6 M |
| Br.CCCc1ccc(C2NCc3c(Cl)cccc3-n3cccc32)cc1 (stereo not drawn) [Comp. 9] | 0.32 10^−6 M | >10 10^−6 M | >10 10^−6 M | 3.2 10^−6 M | 0.1 10^−6 M | >10 10^−6 M | 0.32 10^−6 M |
| Br.Clc1cccc2c1CNC(c1ccsc1)c1cccn1-2 (stereo not drawn) [Comp. 12] | >10 10^−6 M | >10 10^−6 M | >10 10^−6 M | >10 10^−6 M | 3.2 10^−6 M | >10 10^−6 M | >10 10^−6 M |
| Br.CC(C)c1ccc(C2NCc3ccc(Cl)cc3-n3cccc32)cc1 (stereo not drawn) [Comp. 18] | >10 10^−6 M | >10 10^−6 M | >10 10^−6 M | >10 10^−6 M | 1 10^−6 M | >10 10^−6 M | 1 10^−6 M |
| Br.CCc1ccc(C2NCc3ccccc3-n3cccc32)cc1 (stereo not drawn) [Comp. 13] | >10 10^−6 M | >10 10^−6 M | >10 10^−6 M | >10 10^−6 M | 1 10^−6 M | >10 10^−6 M | 3.2 10^−6 M |
